Test results as given in patent publication US5840696A (priority 1997, dated 1998).

How the values were obtained:
[1] = system: systemic vascular bed of the anesthetized rat; assay: systemic vasodepressor response to bolus i.v. nociceptin in the anesthetized rat; format: in vivo
Description: N=number of animals. *p<0.05 when compared to corresponding control value.
Male rats (250-300 g) were anesthetized with pentobarbital sodium (30 mg/kg i.p.). Catheters were placed into a femoral artery and femoral vein for measurement of systemic […] blood pressure and administration of drugs, respectively. Cardiac output was calculated by using Columbus 2F thermodilution catheter placed fluoroscopically in the ascending aortic arch assess changes in temperature following a thermal reference injection of saline (0.2 ml) at room temperature into the right atrium via a jugular venous catheter. Changes in systemic arterial pressure were measured using a Gould P23Id pressure transducer and recorded on a Grass Model 7A recorder. Cardiac output was determined using a Columbus Cardiomax thermodilution cardiac output computer.
Values are means +/-SE; N=6. *p,0.05 compared with corresponding control (paired t test).

[2] = system: isolated feline renal, femoral, mesenteric and carotid arterial rings; assay: isolated feline arterial rings (with endothelium) precontracted with phenylephrine
Description: Additional studies were performed in vitro to determine the contribution of changes in regional hemodynamics in the systemic vasodilator response to nociceptin.

pulmonary vascular bed = pulmonary vascular bed of the intact-chest anesthetized rat under elevated pulmonary vasomotor tone; format: in vivo; conditions: intralobar arterial bolus injections
Description: Since pulmonary blood flow and left atrial pressure were held constant, the decreases in pulmonary artery pressure directly reflect decreases in pulmonary vascular resistance. N=number of animals.
Male Charles River rats (260-340 go) were anesthetized with an intraperitoneal injection of pentobarbital sodium (30 mg/kg), and allowed to breath air enriched with oxygen through an endotracheal tube inserted by tracheotomy. The anesthetized animals were strapped in a supine position to a fluoroscopic table, and catheters were inserted in femoral blood vessels. A specially designed triple lumen balloon perfusion catheter was constructed (Nu-Med, Hopkinton, N.Y.). This catheter is 145 mm in length, […]. and with specially curved tip to facilitate passage through the right heart and main pulmonary artery into the artery supplying the right lower lung lobe. At the distal tip of the catheter is a pressure port through which a 0.25 mm soft tip coronary artery angioplasty guide wire is inserted. […] Mean pressure in the right lower lobe artery and the aorta were continuously recorded. […] Since this catheter perfuses approximately one-sixth of the lung, as determined by measuring lung weight, this perfusion rate approximate physiologic flow for that lung area, i.e. at least 15-20% of the 75-85 ml/min normal total pulmonary blood flow of the rat. […]

[3] = 0.3 ug, i.v. bolus, mean +/- SE, N=6
[4] = 1.0 ug, i.v. bolus, mean +/- SE, N=6
[5] = 3.0 ug, i.v. bolus, mean +/- SE, N=6

CC(C)C[C@H](NC(=O)[C@H](CCCCN)NC(=O)[C@H](CCCN=C(N)N)NC(=O)[C@H](C)NC(=O)[C@H](CO)NC(=O)[C@H](CCCCN)NC(=O)[C@H](CCCN=C(N)N)NC(=O)[C@H](C)NC(=O)CNC(=O)[C@@H](NC(=O)[C@H](Cc1ccccc1)NC(=O)CNC(=O)CNC(=O)[C@@H](N)Cc1ccccc1)[C@@H](C)O)C(=O)N[C@@H](C)C(=O)N[C@@H](CC(N)=O)C(=O)N[C@@H](CCC(N)=O)C(=O)O [nociceptin]
Cardiac Output [1, 3]: 111.3 ± 49.6 mL/min | Systemic Arterial Pressure [1, 3]: 150.0 +/- 15.5 mmHg | Systemic Vascular Resistance [1, 3]: 1.1 +/- 0.1 mmHg/ml/min | Cardiac Output [1, 4]: 102.8 ± 4.5 mL/min | Systemic Arterial Pressure [1, 4]: 141.0 +/- 17.8 mmHg | Systemic Vascular Resistance [1, 4]: 1.1 +/- 0.2 mmHg/ml/min | Cardiac Output [1, 5]: 96.8 ± 34.4 mL/min | Systemic Arterial Pressure [1, 5]: 109.6 +/- 19.8 mmHg | Systemic Vascular Resistance [1, 5]: 0.8 +/- 0.1 mmHg/ml/min | systemic vasodepressor response after L-NAME or L-NIO ([1]; 45 min after L-NAME or L-NIO): significantly inhibited | Cardiac Output ([1]; bolus i.v. doses): did not significantly alter cardiac output | systemic vasodepressor response after glybenclamide and meclofenamate ([1]; bolus i.v. injections, anesthetized rats): not inhibited | Systemic Arterial Pressure ([1]; bolus i.v. injections, pentobarbital-anesthetized rats): decreased systemic arterial pressure in a dose-dependant manner | relaxation of arterial rings [2]: ability to relax | pulmonary vasodilator response after L-NAME and L-NIO (pulmonary vascular bed): inhibit | effect on the pulmonary vascular bed (pulmonary vascular bed; tone elevated with U46619): dilates the pulmonary vascular bed
